Experimental data: article PMC8284453 (Antimicrobial Agents and Chemotherapy, 2021)
≈ marks a conversion by molar mass, not a printed value. Read-outs that look alike come from different tables or passages of the source.

Tests used:
[1] = test system: E. cloacae ECL01 (TEM-72, ACT-1, P99AmpC); test: 24-h time-kill assay; type: cell-based; conditions: lowest concentration with ≥3-log10 CFU/ml reduction at 24 h
Description: (§1) In vitro antibacterial time-kill assay. […] Time-kill assays were performed in 14 ml glass tubes or deep-well storage plates with a bacterial inoculum in CAMHB of 5 × 10^5 CFU/ml. The tubes/plates were incubated at 37°C with shaking at 200 rpm, and aliquots were drawn at six time points (0, 2, 4, 6, 8, and 24 h) to conduct 0.5 log10 dilutions in CAMHB in 96-well plates that were incubated overnight at 37°C and used to ascertain viable bacterial counts. The lowest quantifiable amount by this method is 2 log10 CFU/ml.

[2] = test system: K. pneumoniae ATCC BAA-1705 (KPC-2); test: 24-h time-kill assay; type: cell-based; conditions: lowest concentration with ≥3-log10 CFU/ml reduction at 24 h
Description: as §1

[3] = test system: K. pneumoniae 752286 (OXA-48); test: 24-h time-kill assay; type: cell-based; conditions: lowest concentration with ≥3-log10 CFU/ml reduction at 24 h
Description: as §1

E. coli ESBL4 (CTX-M-15) [4] = test: 24-h time-kill assay; type: cell-based
Description: as §1

[5] = test system: K. pneumoniae ATCC BAA-1705 (KPC-2); test: Broth microdilution MIC; type: cell-based; conditions: modal value, 5 independent determinations
[6] = test system: Enterobacterales expressing class A ESBLs; test: organism not typed; type: cell-based, E. coli, K. pneumoniae; conditions: 25 isolates; BLI fixed at 4 μg/ml, AMC 2:1
E. coli ESBL4 (CTX-M-15) [7] = test: Broth microdilution MIC; type: cell-based; conditions: modal value, 5 independent determinations
[8] = test system: Enterobacterales expressing class A carbapenemases (KPC); test: organism not typed; type: cell-based, K. pneumoniae, E. coli, E. cloacae, Klebsiella oxytoca
[9] = test system: isogenic strains of E. coli expressing Ambler class A, B, C, and D enzymes; test: microbe, parasite or virus in culture; type: cell-based, Escherichia coli

`C[C@@H](O)[C@H]1C(=O)N2C(C(=O)O)=C(S[C@H]3CC[S@@+]([O-])C3)S[C@H]12` [Sulopenem] gave an MBC [1] of 1 µg/mL (≈ 2.86 µM), an MBC [2] of 32 µg/mL (≈ 91.6 µM) and an MBC [3] of over 32 µg/mL. For the same compound, the “outcome of 24-h time-kill assay” value (E. coli ESBL4 (CTX-M-15) [4]; Fig. 3a, CTB 2 μg/ml with BLI at 4 μg/ml, CTB alone 8 μg/ml, amoxicillin 8/clavulanic acid 4 μg/ml, penems 2 μg/ml) was “bactericidal activity”, the MBC (E. coli ESBL4 (CTX-M-15) [4]; lowest concentration with ≥3-log10 CFU/ml reduction at 24 h) was 0.12 µg/mL (≈ 0.343 µM) and the MIC [5] was 32 µg/mL (≈ 91.6 µM). It also gave an MIC50 [6] of 0.12 µg/mL (≈ 0.343 µM), an MIC90 [6] of 0.5 µg/mL (≈ 1.43 µM) and an MIC range [6] of 0.03 to 1 µg/mL. For the same compound, the MIC (E. coli ESBL4 (CTX-M-15) [7]) was 0.12 µg/mL (≈ 0.343 µM), the MIC50 ([8]; 25 isolates, BLI fixed at 4 μg/ml, AMC 2:1) was 32 µg/mL (≈ 91.6 µM) and the MIC90 ([8]; 25 isolates, BLI fixed at 4 μg/ml, AMC 2:1, listed as sulopenem) was at least 64 µg/mL. The MIC ([8]; E. cloacae 847426 (KPC)) was at least 64 µg/mL, the MIC ([8]; E. cloacae 847429 (KPC)) was at least 64 µg/mL and the MIC ([8]; E. cloacae OIMGH49 (p99 AmpC, ACT-2, KPC-2, TEM-1)) was at least 64 µg/mL. For the same compound, the MIC ([8]; E. coli 786978 (KPC)) was at least 64 µg/mL, the MIC ([8]; K. oxytoca 847537 (KPC)) was at least 64 µg/mL and the MIC ([8]; K. oxytoca 847539 (KPC)) was 4 µg/mL (≈ 11.4 µM). The MIC ([8]; K. pneumoniae 155140 (AmpC, KPC-2, SHV-12, TEM-1)) was at least 64 µg/mL, the MIC ([8]; K. pneumoniae 845661 (KPC)) was at least 64 µg/mL and the MIC ([8]; K. pneumoniae 845662 (KPC)) was at least 64 µg/mL. The MIC ([8]; K. pneumoniae 845665 (KPC)) was at least 64 µg/mL, the MIC ([8]; K. pneumoniae 845667 (KPC)) was at least 64 µg/mL and the MIC ([8]; K. pneumoniae 845670 (KPC)) was 16 µg/mL (≈ 45.8 µM). The MIC ([8]; K. pneumoniae 845904 (KPC)) was 16 µg/mL (≈ 45.8 µM), the MIC ([8]; K. pneumoniae 847204 (KPC)) was 32 µg/mL (≈ 91.6 µM) and the MIC ([8]; K. pneumoniae 847375 (KPC)) was 32 µg/mL (≈ 91.6 µM). The MIC ([8]; K. pneumoniae 847378 (KPC)) was 32 µg/mL (≈ 91.6 µM), the MIC ([8]; K. pneumoniae 847379 (KPC)) was 8 µg/mL (≈ 22.9 µM) and the MIC ([8]; K. pneumoniae 847383 (KPC)) was 32 µg/mL (≈ 91.6 µM). For the same compound, the MIC ([8]; K. pneumoniae 847384 (KPC)) was at least 64 µg/mL, the MIC ([8]; K. pneumoniae 847387 (KPC)) was 32 µg/mL (≈ 91.6 µM) and the MIC ([8]; K. pneumoniae 847747 (KPC)) was 32 µg/mL (≈ 91.6 µM). The MIC ([8]; K. pneumoniae 848832 (KPC)) was at least 64 µg/mL, the MIC ([8]; K. pneumoniae 848844 (KPC)) was 32 µg/mL (≈ 91.6 µM) and the MIC ([8]; K. pneumoniae 897067 (KPC)) was 8 µg/mL (≈ 22.9 µM). The MIC ([8]; K. pneumoniae UMM (KPC-2, SHV-5, TEM-1)) was 16 µg/mL (≈ 45.8 µM), the “Fold increase in MIC compared to vector control” value (from here on “Fold increase in MIC”) [9] was 2 and the “Fold increase in MIC” value ([9]; E. coli expressing ACT-17 (class C), inhibitor fixed at 4 μg/ml) was 8. The “Fold increase in MIC” value ([9]; E. coli expressing CMY-2 (class C), inhibitor fixed at 4 μg/ml) was 8, the “Fold increase in MIC” value ([9]; E. coli expressing CMY-42 (class C), inhibitor fixed at 4 μg/ml) was 16 and the “Fold increase in MIC” value ([9]; E. coli expressing CTX-M-15 (class A), inhibitor fixed at 4 μg/ml) was 4. The “Fold increase in MIC” value ([9]; E. coli expressing GES-5 (class A), inhibitor fixed at 4 μg/ml) was 256, the “Fold increase in MIC” value ([9]; E. coli expressing KPC-2 (class A), inhibitor fixed at 4 μg/ml) was 2,048 and the “Fold increase in MIC” value ([9]; E. coli expressing KPC-3 (class A), inhibitor fixed at 4 μg/ml) was 2,048. For the same compound, the “Fold increase in MIC” value ([9]; E. coli expressing KPC-3 D179Y (class A), inhibitor fixed at 4 μg/ml) was 16, the “Fold increase in MIC” value ([9]; E. coli expressing NDM-1 (class B), inhibitor fixed at 4 μg/ml) was 1,024 and the “Fold increase in MIC” value ([9]; E. coli expressing OXA-23 (class D), inhibitor fixed at 4 μg/ml) was 64. For the same compound, the “Fold increase in MIC” value ([9]; E. coli expressing OXA-48 (class D), inhibitor fixed at 4 μg/ml) was 512, the “Fold increase in MIC” value ([9]; E. coli expressing OXA-163 (class D), inhibitor fixed at 4 μg/ml) was 8 and the “Fold increase in MIC” value ([9]; E. coli expressing OXA-181 (class D), inhibitor fixed at 4 μg/ml) was 1,024. For the same compound, the “Fold increase in MIC” value ([9]; E. coli expressing P99/AmpC (class C), inhibitor fixed at 4 μg/ml) was 16, the “Fold increase in MIC” value ([9]; E. coli expressing PER-1 (class A), inhibitor fixed at 4 μg/ml) was 8 and the “Fold increase in MIC” value ([9]; E. coli expressing SHV-5 (class A), inhibitor fixed at 4 μg/ml) was 8. The “Fold increase in MIC” value ([9]; E. coli expressing SHV-12 (class A), inhibitor fixed at 4 μg/ml) was 4 and the “Fold increase in MIC” value ([9]; E. coli expressing VEB-9 (class A), inhibitor fixed at 4 μg/ml) was 4.
